Data published in patent US5935997A, “O-thiocarbamoyl-aminoalkanol compounds, their pharmaceutically useful salts and process for preparing the same” (Yukong Limited, priority 1998, dated 1999).

Tests used:
mice (CD-1 strain) = experiment: Forced Swimming Test (antidepressant; reduction of immobility); type: in vivo; details: one hour prior to immersion, immobility in 15 min
Method: The therapeutic use of the compounds claimed in the present invention as antidepressants has been proven by the "Forced Swinuning Test", a well known pharmacological screening methods for depression and the results are shown in the following Table II. The procedure described by Porsolt et al., […] was used. Test compound was administered p.o. and i.p. to mice (CD-1 strain), one hour prior to the animals being immersed in a 1500 mL glass beaker (16.5 cm deep, 13.0 cm diameter) filled with water (20~23° C.) to about 5 cm from the top. Mice were kept in the water for a period of 15 minutes and the duration of immobility observed within the 15-minute test period was recorded. A mouse was judged to be immobile if it floated motionlessly in the water making only those movements necessary to keep its head above the water.

mice (CD-1strain) = experiment: Maximal ElectroShock (MES) test (anticonvulsant); type: in vivo; details: for MES (animals protected/tested): 30 mg/kg; for ED50: Mus musculus

## NC(=S)OC[C@@H](N)Cc1ccccc1
Mice (CD-1 strain); i.p. (30 mg/kg)
  Inhibition (reduction, %): 51.2%

## NC(=S)OCC(N)Cc1ccc(Cl)cc1 (stereo not drawn)
Mice (CD-1 strain); i.p. (30 mg/kg)
  Inhibition (reduction, %): 30.6%
Mice (CD-1 strain); p.o. (30 mg/kg)
  Inhibition (reduction, %): 38.1%

## CNC(=S)OC[C@H](N)Cc1ccccc1
Mice (CD-1strain); po, 0.5 h
  MES (animals protected/tested): 3/3

## CN(C)C(=S)OC[C@H](N)Cc1ccc(Cl)c(Cl)c1
Mice (CD-1strain); ip, 4.0 h
  MES (animals protected/tested): 1/3

## NC(=S)OC[C@H](N)Cc1ccccc1 [drawing 22]
Mice (CD-1 strain); i.p. (30 mg/kg)
  Inhibition (reduction, %): 41.6%

## CNC(=S)OCC(Cc1ccccc1)N(C)C (stereo not drawn) [drawing 26]
Mice (CD-1 strain); i.p. (30 mg/kg)
  Inhibition (reduction, %): 31.4%
Mice (CD-1 strain); p.o. (30 mg/kg)
  Inhibition (reduction, %): 23.4%

## NC(=S)OC[C@H](N)Cc1ccccc1 [drawing 29]
Mice (CD-1strain); ip, 0.5 h
  ED50: 29 mg/kg
Mice (CD-1strain); po, 0.5 h
  ED50: 189 mg/kg

## CNC(=S)OCC(Cc1ccccc1)N(C)C (stereo not drawn) [drawing 33]
Mice (CD-1strain); ip, 1 h
  ED50: 31.5 mg/kg
Mice (CD-1strain); po, 0.5 h
  ED50: 82.5 mg/kg
